Reference: patent US12233064B1, “Antarctic tunicate Synoicum species-derived alkaloids and methods of treatment” (University of South Florida, priority 2019, dated 2025)

What was measured:
zebrafish embryos = test: Developmental (phenotypic) zebrafish bioassay; type: in vivo, Danio rerio; conditions: for Final C tested (concentration most representative of the phenotype) / MTC (Maximum Tolerated Concentration) / concentration at which interesting phenotype demonstrated: zebrafish embryos; for Final C tested (concentration most representative of the phenotype): 24 h post fertilization; for MTC (Maximum Tolerated Concentration): compound added 4 h, end 24 h post fertilization; for phenotype of treated embryos compared to control: 24h post-fertilization, FIG. 16
Protocol: Wildtype Danio rerio fish were used for the assay. Once the zebrafish eggs were collected, they were placed in fresh media along with methylene blue, to deter fungal growth. The embryos were sorted and placed in a 96-well plate and the volume was standardized. For the purpose of this screening it was determined that the optimal point to add the compounds was 4 hours post fertilization and the ending point of the assay was 24 hours post fertilization. The delay in growth and the dysmorphologies were monitored and assessed.
A developmental zebrafish assay was utilized to test the activity of the extract, the subsequent fractions, and the isolated compounds. […] The Maximum Tolerated Concentration (MTC) was determined for each compound, alongside the minimum active concentration for each compound. The final tested concentration was determined as the one most representative of the phenotype.

[1] = tested on: A549 (Human lung adenocarcinoma epithelial cell line); conditions: synthetic Meridianin A; cited from earlier work
Plasmodium falciparum = conditions: synthetic Meridianin A; cited from earlier work
Leishmaniasis = Leishmaniasis assay

Structure (SMILES)	Final C tested (concentration most representative of the phenotype) (zebrafish embryos)	MTC (Maximum Tolerated Concentration) (zebrafish embryos)	phenotype of treated embryos compared to control (zebrafish embryos)	concentration at which interesting phenotype demonstrated (zebrafish embryos)	cytotoxicity to A549 [1]	growth of P. falciparum (Plasmodium falciparum)	result of Leishmaniasis assay (Leishmaniasis)
Nc1nccc(C2(O)C(=O)Nc3ccccc32)n1 (stereo not shown) [Australindolone A]	300 µM	1000 µM					
Nc1nccc(-c2c[nH]c3cc(Br)c(Br)cc23)n1 [Meridianin F]	2 µM	10 µM	truncation of the anterior-posterior axis	2 µM			
Nc1nccc(-c2c[nH]c3cc(Br)cc(O)c23)n1 [Meridianin B]	100 µM	300 µM					
Nc1nccc(-c2c[nH]c3ccccc23)n1 [Meridianin G]	100 µM	300 µM					
Nc1nccc(-c2c[nH]c3ccc(Br)cc23)n1 [Meridianin C]	3 µM	10 µM	truncation of the anterior-posterior axis	3 µM			
Nc1nccc(-c2c[nH]c3c(Br)ccc(O)c23)n1 [Meridianin E]	10 µM	100 µM					
Nc1nccc(-c2c[nH]c3cc(Br)ccc23)n1 [Meridianin D]	65 µM	100 µM					
Nc1nccc(-c2c[nH]c3c(Br)cc(Br)c(O)c23)n1 [Meridianin H]	60 µM	100 µM					
Nc1nccc(-c2c[nH]c3cccc(O)c23)n1 [Meridianin A]	30 µM	100 µM			cytotoxic to A549	inhibit the growth of P. falciparum	notable
